In ChEMBL document CHEMBL1136757 (J Med Chem, 2003):
pIC50: −log10 of the molar value. Several values for one entry are separate records, joined by “and”; a condition that tells them apart may be missing. Equal values may be shown once.

What was measured:
[1] = target: T1, Glutathione reductase (Saccharomyces cerevisiae S288c, UniProt P41921); assay: In vitro inhibitory activity against glutathione reductase (GR) from bakers yeast; Not active
T1 sequence (P41921 whole entry): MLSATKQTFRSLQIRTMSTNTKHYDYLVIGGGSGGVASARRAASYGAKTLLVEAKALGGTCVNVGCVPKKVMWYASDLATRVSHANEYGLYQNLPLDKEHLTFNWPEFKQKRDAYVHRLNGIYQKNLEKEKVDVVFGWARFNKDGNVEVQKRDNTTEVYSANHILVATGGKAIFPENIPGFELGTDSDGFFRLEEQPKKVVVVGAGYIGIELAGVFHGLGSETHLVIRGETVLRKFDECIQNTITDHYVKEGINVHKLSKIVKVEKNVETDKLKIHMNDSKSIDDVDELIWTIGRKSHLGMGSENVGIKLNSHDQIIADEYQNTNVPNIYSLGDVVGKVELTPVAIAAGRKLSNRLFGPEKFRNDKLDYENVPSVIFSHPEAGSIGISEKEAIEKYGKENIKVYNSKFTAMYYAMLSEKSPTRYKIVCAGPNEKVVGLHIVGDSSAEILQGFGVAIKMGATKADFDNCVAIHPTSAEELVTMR

[2] = In vitro inhibitory activity against sorbitol dehydrogenase (SD) from sheep liver; Not active
[3] = target: Aldo-keto reductase family 1 member B1 (Rattus norvegicus, UniProt P07943); assay: In vitro inhibitory activity against aldose reductase (ALR2) from rat lens extraction.
[4] = target: T2, Aldo-keto reductase family 1 member A1 (Rattus norvegicus, UniProt P51635); assay: In vitro inhibitory activity against aldehyde reductase 1 (ALR1) from rat kidney.
T2 sequence (P51635 whole entry): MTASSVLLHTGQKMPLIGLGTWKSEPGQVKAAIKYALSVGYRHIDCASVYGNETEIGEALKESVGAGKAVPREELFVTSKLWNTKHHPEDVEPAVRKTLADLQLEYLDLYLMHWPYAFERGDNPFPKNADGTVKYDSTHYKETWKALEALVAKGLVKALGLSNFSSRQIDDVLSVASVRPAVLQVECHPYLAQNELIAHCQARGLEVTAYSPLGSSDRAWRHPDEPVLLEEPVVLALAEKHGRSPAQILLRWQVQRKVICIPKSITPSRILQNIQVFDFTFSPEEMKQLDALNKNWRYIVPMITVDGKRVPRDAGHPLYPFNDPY

[5] = species on record: Rattus norvegicus; assay: Ability to prevent cataract development in severly galactosemic rat treated with 3 percent ophthalmic solution on day 11; format: functional
[6] = species on record: Rattus norvegicus; assay: Ability to prevent cataract development in severly galactosemic rat treated with 3 percent ophthalmic solution on day 15; format: functional
[7] = species on record: Rattus norvegicus; assay: Ability to prevent cataract development in severly galactosemic rat treated with 3 percent ophthalmic solution on day 18; format: functional
[8] = species on record: Rattus norvegicus; assay: Ability to prevent cataract development in severly galactosemic rat treated with 3 percent ophthalmic solution on day 20; format: functional
[9] = species on record: Rattus norvegicus; assay: Ability to prevent cataract development in severly galactosemic rat treated with 3 percent ophthalmic solution on day 16; format: functional
[10] = species on record: Rattus norvegicus; assay: Ability to prevent cataract development in severly galactosemic rat treated with 3 percent ophthalmic solution on day 19; format: functional
[11] = species on record: Rattus norvegicus; assay: Ability to prevent cataract development in severly galactosemic rat treated with 3 percent ophthalmic solution on day 14; format: functional
[12] = species on record: Rattus norvegicus; assay: Ability to prevent cataract development in severly galactosemic rat treated with 3 percent ophthalmic solution on day 12; format: functional
[13] = species on record: Rattus norvegicus; assay: Ability to prevent cataract development in severly galactosemic rat treated with 3 percent ophthalmic solution on day 17; format: functional
[14] = species on record: Rattus norvegicus; assay: Ability to prevent cataract development in severly galactosemic rat treated with 3 percent ophthalmic solution on day 13; format: functional
[15] = species on record: Rattus norvegicus; assay: Ability to prevent cataract development in severly galactosemic rat treated with 3 percent ophthalmic solution on day 21; format: functional
[16] = target: T1, Glutathione reductase; assay: In vitro inhibitory activity against glutathione reductase (GR) from bakers yeast
[17] = species on record: Rattus norvegicus; assay: Ability to prevent cataract development in severly galactosemic rat treated with 1 percent ophthalmic solution on day 17; format: functional
[18] = species on record: Rattus norvegicus; assay: Ability to prevent cataract development in severly galactosemic rat treated with 1 percent ophthalmic solution on day 16; format: functional
[19] = species on record: Rattus norvegicus; assay: Ability to prevent cataract development in severly galactosemic rat treated with 1 percent ophthalmic solution on day 18; format: functional
[20] = species on record: Rattus norvegicus; assay: Ability to prevent cataract development in severly galactosemic rat treated with 1 percent ophthalmic solution on day 12; format: functional
[21] = species on record: Rattus norvegicus; assay: Ability to prevent cataract development in severly galactosemic rat treated with 1 percent ophthalmic solution on day 14; format: functional
[22] = species on record: Rattus norvegicus; assay: Ability to prevent cataract development in severly galactosemic rat treated with 1 percent ophthalmic solution on day 13; format: functional
[23] = species on record: Rattus norvegicus; assay: Ability to prevent cataract development in severly galactosemic rat treated with 1 percent ophthalmic solution on day 11; format: functional
[24] = species on record: Rattus norvegicus; assay: Ability to prevent cataract development in severly galactosemic rat treated with 1 percent ophthalmic solution on day 20; format: functional
[25] = species on record: Rattus norvegicus; assay: Ability to prevent cataract development in severly galactosemic rat treated with 1 percent ophthalmic solution on day 21; format: functional
[26] = species on record: Rattus norvegicus; assay: Ability to prevent cataract development in severly galactosemic rat treated with 1 percent ophthalmic solution on day 19; format: functional
[27] = species on record: Rattus norvegicus; assay: Ability to prevent cataract development in severly galactosemic rat treated with 1 percent ophthalmic solution on day 15; format: functional

With `Cc1ccc(CN2C(=O)C(C(C#N)C(=O)O)c3ccccc32)cc1` (centres undefined) the IC50 [1] was “Not Active”, the IC50 [2] was “Not Active” and the pIC50 [3] was 6.19 and 6.34. For the same molecule, the pIC50 [4] was 5.45.

`COc1ccc(CN2C(=O)C(C(C#N)C(=O)O)c3cc(F)ccc32)cc1` (centres undefined) showed a pIC50 [3] of 6.96.

With `N#CC(C(=O)O)C1C(=O)Nc2ccc(F)cc21` (centres undefined) the IC50 [1] was “Not Active”, the IC50 [2] was “Not Active” and the pIC50 [3] was 6.55. It also gave a pIC50 [4] of 5.17.

`COc1ccc(CN2C(=O)C(C(C#N)C(=O)O)c3ccccc32)cc1` (centres undefined) showed a pIC50 [3] of 6.20.

For `N#CC(C(=O)O)C1C(=O)Nc2ccc(Br)cc21` (centres undefined), the pIC50 [3] was 6.42.

`CCCN1C(=O)C(C(C#N)C(=O)O)c2cc(F)ccc21` (centres undefined) showed a pIC50 [3] of 6.55.

With `N#CC(C(=O)O)C1C(=O)N(CCCl)c2ccc(F)cc21` (centres undefined) the pIC50 [3] was 5.87.

Work on `N#CC(C(=O)O)C1C(=O)N(Cc2ccccc2)c2ccc(F)cc21` (centres undefined) yielded a pIC50 [3] of 6.74.

In the case of `N#CC(C(=O)O)C1C(=O)Nc2ccc([N+](=O)[O-])cc21` (centres undefined), the pIC50 [3] was 5.92.

For `Cc1ccc(CN2C(=O)C(C(C#N)C(=O)O)c3cc(Br)ccc32)cc1` (centres undefined), the pIC50 [3] was 6.60.

For `Cc1ccc(CN2C(=O)C(C(C#N)C(=O)O)c3cc(F)ccc32)cc1` (centres undefined), the Nuclear cataract [5] was 0%, the Nuclear cataract [6] was 43% and the IC50 [1] was “Not Active”. It also gave a Nuclear cataract [7] of 72%, a Nuclear cataract [8] of 96% and a Nuclear cataract [9] of 57%. It also gave a Nuclear cataract [10] of 84%, a Nuclear cataract [11] of 18% and a Nuclear cataract [12] of 0%. The pIC50 [3] was 7.12 and 7.38, the Nuclear cataract [13] was 57% and the pIC50 [4] was 6.16. The Nuclear cataract [14] was 0% and the Nuclear cataract [15] was 100%.

`N#CC(C(=O)O)C1C(=O)Nc2ccccc21` (centres undefined) gave a pIC50 [3] of 6.07.

In the case of `Cc1ccc(CN2C(=O)C(C(C#N)C(=O)OC(C)C)c3cc(F)ccc32)cc1` (centres undefined), the Nuclear cataract [5] was 0%, the Nuclear cataract [6] was 0% and the Nuclear cataract [7] was 0%. For the same molecule, the Nuclear cataract [8] was 8%, the Nuclear cataract [9] was 0% and the Nuclear cataract [10] was 8%. For the same molecule, the Nuclear cataract [11] was 0%, the Nuclear cataract [12] was 0% and the Nuclear cataract [13] was 0%. For the same molecule, the Nuclear cataract [14] was 0% and the Nuclear cataract [15] was 8%.

For `N#CC(C(=O)O)C1C(=O)N(Cc2ccccc2)c2ccccc21` (centres undefined), the pIC50 [3] was 5.49.

With `N#CC(C(=O)O)C1C(=O)N(Cc2ccc(C(F)(F)F)cc2)c2ccccc21` (centres undefined) the pIC50 [3] was 6.24.

In the case of `N#CC(C(=O)O)C1C(=O)N(Cc2ccc(F)cc2)c2ccc(F)cc21` (centres undefined), the IC50 [1] was “Not Active”, the IC50 [2] was “Not Active” and the pIC50 [3] was 6.89 and 7.24. The pIC50 [4] was 6.31.

`N#CC(C(=O)O)C1C(=O)N(Cc2ccc(F)cc2)c2ccccc21` (centres undefined) showed a pIC50 [3] of 6.24.

Molecule `COc1ccc2c(c1)C(C(C#N)C(=O)O)C(=O)N2` (centres undefined) has a pIC50 [3] of 5.27.

Molecule `CN1C(=O)C(C(C#N)C(=O)O)c2cc(F)ccc21` (centres undefined) has a pIC50 [3] of 6.41.

With `N#CC(C(=O)O)C1C(=O)N(Cc2ccc(C(F)(F)F)cc2)c2ccc(F)cc21` (centres undefined) the pIC50 [3] was 6.55.

For `O=c1c(O)c(-c2ccc(O)c(O)c2)oc2cc(O)cc(O)c12` [QUERCETIN], the pIC50 [16] was 4.31.

With `O=C1NC(=O)[C@@]2(CCOc3ccc(F)cc32)N1` [SORBINIL] the IC50 [1] was “Not Active”.

In the case of `COc1ccc2c(C(=S)N(C)CC(=O)O)cccc2c1C(F)(F)F` [TOLRESTAT], the Nuclear cataract [17] was 32%, the Nuclear cataract [18] was 32% and the Nuclear cataract [5] was 0%. The Nuclear cataract [6] was 0%, the IC50 [1] was “Not Active” and the Nuclear cataract [7] was 0%. It also gave a Nuclear cataract [8] of 0%, a Nuclear cataract [19] of 43% and a Nuclear cataract [9] of 0%. It also gave a Nuclear cataract [10] of 0%, a Nuclear cataract [20] of 0% and a Nuclear cataract [21] of 23%. It also gave a Nuclear cataract [11] of 0%, a Nuclear cataract [22] of 0% and a Nuclear cataract [23] of 0%. It also gave a Nuclear cataract [12] of 0%, a pIC50 [3] of 7.34 and a Nuclear cataract [24] of 47%. For the same molecule, the Nuclear cataract [25] was 47%, the Nuclear cataract [26] was 43% and the Nuclear cataract [13] was 0%. For the same molecule, the Nuclear cataract [27] was 32%, the IC50 [4] was “Not Active” and the Nuclear cataract [14] was 0%. It also gave a Nuclear cataract [15] of 0%.
